US20110206623A1, “NOVEL DIPOLAR IONIC COMPOUNDS COMPRISING FORMULATIONS AND THE USE THEREOF” (EVONIK GOLDSCHMIDT GMBH, priority 2007, published 2011)

How the values were obtained:
[1] = tested on: skin model (reconstructed human epidermis) damaged with SDS; assay: LDH release after damaging the cells with SDS, O/W cream; assay type: cell-based
Experimental: (§1) In order to be able to characterize the skin care properties of the compounds 2.1 to 2.8, various in vitro tests were carried out on skin models (reconstructed human epidermis, company: SkinEthic).
The LDH concentration was determined with a commercially available test kit (LDH test kit, Roche Diagnostics, Mannheim, Germany).
Sodium dodecyl sulphate (SDS) is known for attacking the cell membrane and for resulting in increased LDH release. The experiment described below should investigate to what extent compound 2.1 can protect the cells after damaging with SDS.
The skin model was damaged with SDS for 40 min. Subsequently, the test formulation, an O/W cream with 1 or 4% of compound 2.1, was applied. The LDH release was measured 24 h and 48 h after application of the test formulation.

[2] = tested on: skin moisture (stratum corneum), forearms of probands; assay: In vivo moisturizer properties, corneometer, 2 hours after application; parameters: species or system human
Experimental: The skin moisture is determined in normal fashion using a corneometer.
With the corneometer principle, the skin moisture of the “outer layer” of the epidermis (stratum corneum) is determined by means of a capacity measurement. This principle is based on the fact that the dielectric constants of water and other substances differ. An appropriately shaped measuring capacitor reacts with different changes in capacity on the samples introduced into its sensing volume, which changes in capacity are recorded and evaluated fully automatically by the device. The active probe coated with special glass is pressed against the place on the skin to be measured and, after 1 second, the value measured by the corneometer, thus the degree of moisture on the skin surface, appears on the display
For the experiments described here, use is made of a corneometer CM 825 from Courage & Khazaka. The skin moisture was measured before and 2 hours after application of the test formulations. For this, 4 test panels were each time highlighted on the forearms of 14 probands, on which the different test formulations were applied. Before each measurement, the probands had to spend at least 15 min in a climate-controlled chamber (21-22° C., 55% R.H.).
The difference in the corneometer values before and after application of the test formulations was calculated. […]

[3] = tested on: skin moisture, inner side of a forearm of probands; assay: Long-term moisturizing effect, corneometer, two-week study; assay type: in vivo, human; conditions: 2% in test formulation 3.9, twice daily for 2 weeks; compared with vehicle; 12 probands
Experimental: In order to investigate the long-term effect of the moisturizing properties of compound 2.1, a study lasting two weeks was carried out with 12 probands. The probands received 2 formulations, one with 2% of compound 2.1 and one without active substance. They had to apply each of these formulations on the inner side of a forearm twice daily. The moisture content was measured before beginning to use and also after 2 weeks.
The moisture content was determined using a corneometer CM 825 (Courage & Khazaka). Before each measurement, the probands had to stay in a climate-controlled chamber (21-22° C., 55% R.H.) for at least 15 min. The difference in the corneometer units with respect to the starting value was calculated each time (ΔCU).

[4] = tested on: skin roughness, inner side of a forearm of probands; assay: Skin roughness by tape stripping and Bradford test; assay type: in vivo, human; conditions: 2% formulation twice daily
Source text: The skin roughness can be quantified in a simple way by means of tape stripping. The rougher the skin surface, e.g. because the skin lipid barrier is damaged, the weaker the binding of the skin cells. In some cases, with very rough skin, this can be seen with the naked eye. The outermost corneocytes are removed by tape stripping. In this connection, the more corneocytes stuck to the tape, the rougher the skin. The corneocytes are subsequently determined quantitatively using a commercially available Bradford test. This is based on the following principle: the triphenylmethane dye Coomassie Brilliant Blue G-250 (CBBG) forms complexes in acid solution both with the cationic and the nonpolar hydrophobic side chains of the proteins. […] Since the extinction coefficient of the dye/protein complex is in addition very much higher than that of the free dye, the increase in the absorption at 595 nm through the formation of the complex can be measured photometrically with high sensitivity against the free dye reagent and is a measure of the protein concentration of the solution.
The study was carried out with 12 probands who received two test formulations, one with 2% compound 2.1 and one without. […] Tape strips were taken and analyzed before the beginning of the application and also after 2 weeks and after 4 weeks. […]

[5] = Water retention capacity on an IMS film; conditions: 5.0% in test formulation 3.7; 4 hours at 21-22° C. and 72% R.H.; in comparison with the vehicle
Source text: The determination of the water retention capacity of active substances using the IMS film represents a simple screening test by which the moisturizing properties of active substances can be very satisfactorily investigated. The measurement is based on the following principle: The IMS film is a membrane which is covered with peptides, lipids and polymers and represents a greatly simplified skin model. The active substance interacts out of the formulation with the film. Combining with water takes place and thus the evaporation of the water is prevented or made more difficult.
Implementation: • 1. The weight of the IMS membrane is determined (W1). • 2. The test formulation is applied, the film is again weighed (W2) and the film is subsequently incubated at 21-22° C. and 72% R.H. for 4 hours. • 3. After the 4 hours have passed, the film is again weighed (W3). • 4. The water retention capacity of the formulation (WR) is calculated as follows: […]

IL-1α = assay: Anti-inflammatory action of an O/W cream with compound 2.1 (IL-1α after SDS damage); assay type: cell-based, human; conditions: O/W cream with 1% and 4% of compound 2.1 applied after SDS damage
Experimental: as §1
IL-1α is a […] which plays a central role in inflammatory reactions in the body. Sodium lauryl sulphate (SDS) is a skin-irritating surfactant which can give rise to irritant contact dermatitis in man, is used as model irritant in proband studies and, inter alia, induces the release of IL-1α. The IL-1α concentration was determined with a commercially available test kit (human IL-1α immunoassay, R&D Systems GmbH, Wiesbaden, Germany).
It should be investigated whether the anti-inflammatory effect of the short-chain zwitterionic compounds also appears when used from a cosmetic formulation. For this, skin models were damaged with SDS. Subsequently, the test formulation with 1% and 4% of compound 2.1 was applied. The IL-1α concentration was determined 24 and 48 h after application.

[6] = tested on: skin model (reconstructed human epidermis) damaged with SDS; assay: XTT test with an O/W cream with compound 2.1 after SDS damage; assay type: cell-based; conditions: O/W cream with compound 2.1 applied after 0.25% SDS for 40 min; 24 h incubation
Experimental: as §1
The XTT test is based on the ability of the cells to reduce the dye XTT, which can be detected photometrically. This reaction is catalyzed by mitochondrial succinate dehydrogenase and requires NAD(P)H, which can only be formed by metabolically active cells. To sum up, the XTT test describes the viability of the cells.
The XTT test was carried out with a commercially available test kit and took place according to the manufacturer's instructions (XTT Test, Roche Diagnostics, Mannheim, Germany).
The skin model was first damaged with 0.25% SDS for 40 min. Subsequently, the test formulations were applied. After incubating for a time of 24 h, the viability of the cells was determined using the XTT test.
Test formulation: see Example 3.2.

With `C[N+](C)(CCCNC=O)CC(=O)[O-]` [Compound 2.1] the “Effectiveness on LDH release with 4% compared with 1%” value ([1]; O/W cream with 4% vs 1% of compound 2.1 after SDS damage) was “no clear increase in the effectiveness”, the “Reduction of the SDS-induced increase in LDH release (total LDH after 24 and 48 h)” value ([1]; O/W cream with compound 2.1 applied after 40 min SDS damage, compared with vehicle) was “clearly intensified” and the “Effectiveness on skin moisture with increasing concentration of use” value ([2]; 1.0% vs 4.0% in test formulation 3.8) was “clearly increased with increasing concentration of use”. For the same compound, the “Skin moisture, increase in corneometer units (ΔCU)” value ([2]; 1.0/4.0% in test formulation 3.8, 14 probands) was “very clearly increased”, the “Moisture content (ΔCU) after 2 weeks” value [3] was “further enhanced” and the “Skin roughness (amount of protein on tape strips, based on the vehicle), two weeks” value ([4]; after using for two weeks, compared with the vehicle) was “clear reduction”. The “Skin roughness (amount of protein on tape strips, based on the vehicle), further use” value ([4]; further use (after 4 weeks)) was “even more pronounced”, the “Water retention capacity (WR)” value [5] was “particularly strongly pronounced” and the “SDS-induced increase in IL-1α (overall concentration after 24 and 48 h)” value (IL-1α) was “more strongly reduced in a concentration-dependent fashion”. For the same compound, the “Viability of the skin cells (XTT) after damaging with SDS” value [6] was “more than redoubled”.
